The source made the active and inactive calls. The calls are words filed in the database; no cut-off is given here.
Legend:
CCRF-CEM [1] = assay: Induction of apoptosis in human CCRF-CEM cells assessed as late apoptotic cells at 5 times IC50 concentration measured after 24 hrs by AnnexinV-FITC/propidium iodide staining based flow cytometry analysis (reference value: 0.1 %); type: functional
CCRF-CEM [2] = assay: Cell cycle arrest in human CCRF-CEM cells assessed as increase in G2/M phase accumulation at 5 times IC50 measured after 24 hrs by propidium iodide/RNase staining based flow cytometry analysis; type: functional
[3] = Permeability of compound in PBS buffer assessed as permeability coefficient at pH 7.4 incubated for 18 hrs by PAMPA based RF-MS analysis; type: ADME; details: pH 7.4, 18 h
[4] = Microsomal stability in human liver microsomes assessed as parent compound remaining at 2 uM incubated for 30 mins by RF-MS analysis; type: ADME, Microsome; details: read-out: Stability
[5] = Chemical stability of compound in PBS buffer assessed as parent compound remaining at 2 uM at pH 7.4 and 37 degC incubated for 30 mins by RF-MS analysis; type: physicochemical; details: read-out: Stability
CCRF-CEM [6] = assay: Induction of mitochondrial membrane depolarization in human CCRF-CEM cells at 5 times IC50 measured after 24 hrs by JC-1 staining based flow cytometry analysis (reference value: 8.4 %); type: functional
CCRF-CEM [7] = assay: Induction of apoptosis in human CCRF-CEM cells assessed as early apoptotic cells at 5 times IC50 concentration measured after 24 hrs by AnnexinV-FITC/propidium iodide staining based flow cytometry analysis (reference value: 2.8 %); type: functional
CCRF-CEM [8] = assay: Induction of apoptosis in human CCRF-CEM cells assessed as decrease in Bcl-2 expression at 5 times IC50 concentration measured after 24 hrs by Western blot analysis; type: functional, cell-based
HCT-116 [9] = assay: Cytotoxicity against p53 knockout human HCT116 cells incubated for 72 hrs by MTS assay; type: functional, cell-based; details: HCT-116, 72 h
[10] = Stability in human plasma assessed as parent compound remaining at 2 uM incubated for 30 mins by RF-MS analysis; type: ADME, cell-free; details: read-out: Stability
[11] = Stability in human plasma assessed as parent compound remaining at 2 uM incubated for 15 mins by RF-MS analysis; type: ADME, cell-free; details: read-out: Stability
CCRF-CEM [12] = assay: Induction of apoptosis in human CCRF-CEM cells assessed as viable cells at 5 times IC50 concentration measured after 24 hrs by AnnexinV-FITC/propidium iodide staining based flow cytometry analysis (reference value: 97 %); type: functional
CCRF-CEM [13] = assay: Induction of apoptosis in human CCRF-CEM cells assessed as increase in BAX expression at 5 times IC50 concentration measured after 24 hrs by Western blot analysis; type: functional, cell-based
U2OS = assay: Cytotoxicity against human U2OS cells incubated for 72 hrs by MTS assay; type: functional, cell-based
CCRF-CEM [14] = assay: Induction of apoptosis in human CCRF-CEM cells assessed as increase in caspase 3/7 activity using Ac-DEVD-AMC as substrate at 5 times IC50 concentration measured after 24 hrs by fluorescence assay; type: functional, cell-based
K562 = assay: Cytotoxicity against human K562 cells incubated for 72 hrs by MTS assay; type: functional, cell-based; details: K562, 72 h
CCRF-CEM [15] = assay: Cytotoxicity against human CCRF-CEM cells incubated for 72 hrs by MTS assay; type: functional, cell-based
[16] = Microsomal stability in human liver microsomes assessed as parent compound remaining at 2 uM incubated for 60 mins by RF-MS analysis; type: ADME, Microsome; details: read-out: Stability
[17] = Stability in human plasma assessed as parent compound remaining at 2 uM incubated for 120 mins by RF-MS analysis; type: ADME, cell-free; details: read-out: Stability
[18] = Cytotoxicity against human CEM-DNR-bulk cells incubated for 72 hrs by MTS assay; type: functional, cell-based
CCRF-CEM [19] = assay: Induction of apoptosis in human CCRF-CEM cells assessed as activation of procaspase 8 at 5 times IC50 concentration measured after 24 hrs by Western blot analysis; type: functional, cell-based
[20] = Cytotoxicity against human K562-TAX cells incubated for 72 hrs by MTS assay; type: functional, cell-based
[21] = Protein binding in human plasma at 10 uM measured after 4 hrs by rapid equilibrium dialysis; type: ADME, cell-free; details: read-out: PPB (converted)
BJ = assay: Cytotoxicity against human BJ cells incubated for 72 hrs by MTS assay; type: cell-based
A549 = assay: Cytotoxicity against human A549 cells incubated for 72 hrs by MTS assay; type: functional, cell-based; details: A549, 72 h
CCRF-CEM [22] = assay: Induction of apoptosis in human CCRF-CEM cells assessed as necrotic cells at 5 times IC50 concentration measured after 24 hrs by AnnexinV-FITC/propidium iodide staining based flow cytometry analysis (reference value: 0.1 %); type: functional
HCT-116 [23] = assay: Cytotoxicity against human HCT116 cells incubated for 72 hrs by MTS assay; type: functional, cell-based; details: HCT-116, 72 h
[24] = Chemical stability of compound in PBS buffer assessed as parent compound remaining at 2 uM at pH 7.4 and 37 degC incubated for 15 mins by RF-MS analysis; type: physicochemical; details: read-out: Stability
[25] = Chemical stability of compound in PBS buffer assessed as parent compound remaining at 2 uM at pH 7.4 and 37 degC incubated for 120 mins by RF-MS analysis; type: physicochemical; details: read-out: Stability
[26] = Stability in human plasma assessed as parent compound remaining at 2 uM incubated for 60 mins by RF-MS analysis; type: ADME, cell-free; details: read-out: Stability
[27] = Chemical stability of compound in PBS buffer assessed as parent compound remaining at 2 uM at pH 7.4 and 37 degC incubated for 60 mins by RF-MS analysis; type: physicochemical; details: read-out: Stability
[28] = Microsomal stability in human liver microsomes assessed as parent compound remaining at 2 uM incubated for 15 mins by RF-MS analysis; type: ADME, Microsome; details: read-out: Stability
MRC5 = assay: Cytotoxicity against human MRC5 cells incubated for 72 hrs by MTS assay; type: cell-based; details: MRC5, 72 h
CCRF-CEM [29] = assay: Cell cycle arrest in human CCRF-CEM cells assessed as decrease in proportion of cells in S phase at 5 times IC50 measured after 24 hrs by propidium iodide/RNase staining based flow cytometry analysis; type: functional

SMILES	remaining at 0.5 h, 2 µM [4]	remaining at 0.5 h, 2 µM [5]	IC50 (HCT-116 [9])	remaining at 0.5 h, 2 µM [10]	remaining at 0.25 h, 2 µM [11]	IC50 (U2OS)	IC50 (K562)	IC50 (CCRF-CEM [15])	remaining at 1 h, 2 µM [16]	remaining at 2 h, 2 µM [17]	IC50 [18]	IC50 [20]	IC50 (BJ)	IC50 (A549)	IC50 (HCT-116 [23])	remaining at 0.25 h, 2 µM [24]	remaining at 2 h, 2 µM [25]	remaining at 1 h, 2 µM [26]	remaining at 1 h, 2 µM [27]	remaining at 0.25 h, 2 µM [28]	also measured
CC(C)[C@@H]1CC[C@]2(C(=O)O)CC[C@]3(C)[C@H](CC[C@@H]4[C@@]5(C)Cc6sc(N)nc6C(C)(C)[C@@H]5CC[C@]43C)[C@@H]12	93.4%	96.1%	47.2 µM	99.6%	99.3%	42.9 µM	43.8 µM	4.5 µM	90.8%	99.9%	27 µM	22.8 µM	> 50 µM	44.5 µM	32.4 µM	99.3%	76.3%	99.9%	80.4%	97.7%	Activity (CCRF-CEM [1]): 0.4%; Activity (CCRF-CEM [2]): Active; log(permeability) [3]: -5.34; Activity (CCRF-CEM [6]): 16.7%; Activity (CCRF-CEM [7]): 3.1%; Activity (CCRF-CEM [8]): Active; Activity (CCRF-CEM [12]): 96.4%; Activity (CCRF-CEM [13]): Active; Activity (CCRF-CEM [14]): Active; Activity (CCRF-CEM [19]): Active; fraction unbound at 4 h, 10 µM [21]: 0.015; Activity (CCRF-CEM [22]): 0.1%; IC50 (MRC5): > 50 µM; Activity (CCRF-CEM [29]): Active
CC(C)[C@@H]1CC[C@]2(C(=O)O)CC[C@]3(C)[C@H](CC[C@@H]4[C@@]5(C)CC(SC#N)C(=O)C(C)(C)[C@@H]5CC[C@]43C)[C@@H]12 (stereo partly specified)	35.5%	99.4%	3.4 µM	94.6%	99.5%	15.1 µM	3.4 µM	0.9 µM	1.6%	14%	14.5 µM	5.4 µM	5.8 µM	12.5 µM	3.5 µM	99.5%	69.8%	56.8%	90.6%	62.9%	IC50 (MRC5): 4.6 µM
C[C@H]1[C@H](C)CC[C@]2(C(=O)O)CC[C@]3(C)C(=CC[C@@H]4[C@@]5(C)CC(SC#N)C(=O)C(C)(C)[C@@H]5CC[C@]43C)[C@H]12 (stereo partly specified)	54.9%	49.3%	32.3 µM	100%	99.2%	33.1 µM	34.7 µM	4.7 µM	14.9%	36.9%	28.2 µM	29 µM	> 50 µM	42.5 µM	32.1 µM	90.3%	15.3%	77.4%	37.1%	61%	IC50 (MRC5): 39.8 µM
